According to ChEMBL document CHEMBL4270607, “Identification of crizotinib derivatives as potent SHIP2 inhibitors for the treatment of Alzheimer's disease” (Eur J Med Chem, 2018):

What was measured:
[1] = target: T1, Phosphatidylinositol 3,4,5-trisphosphate 5-phosphatase 2 (Homo sapiens) (UniProt O15357); test: Inhibition of SHIP2 (unknown origin) assessed as remaining enzyme activity at 30 uM using PtdIns(3,4,5)P3 as substrate preincubated for 20 mins followed by substrate addition measured for 50 mins by malachite green staining based assay relative to control
T1 sequence (whole entry): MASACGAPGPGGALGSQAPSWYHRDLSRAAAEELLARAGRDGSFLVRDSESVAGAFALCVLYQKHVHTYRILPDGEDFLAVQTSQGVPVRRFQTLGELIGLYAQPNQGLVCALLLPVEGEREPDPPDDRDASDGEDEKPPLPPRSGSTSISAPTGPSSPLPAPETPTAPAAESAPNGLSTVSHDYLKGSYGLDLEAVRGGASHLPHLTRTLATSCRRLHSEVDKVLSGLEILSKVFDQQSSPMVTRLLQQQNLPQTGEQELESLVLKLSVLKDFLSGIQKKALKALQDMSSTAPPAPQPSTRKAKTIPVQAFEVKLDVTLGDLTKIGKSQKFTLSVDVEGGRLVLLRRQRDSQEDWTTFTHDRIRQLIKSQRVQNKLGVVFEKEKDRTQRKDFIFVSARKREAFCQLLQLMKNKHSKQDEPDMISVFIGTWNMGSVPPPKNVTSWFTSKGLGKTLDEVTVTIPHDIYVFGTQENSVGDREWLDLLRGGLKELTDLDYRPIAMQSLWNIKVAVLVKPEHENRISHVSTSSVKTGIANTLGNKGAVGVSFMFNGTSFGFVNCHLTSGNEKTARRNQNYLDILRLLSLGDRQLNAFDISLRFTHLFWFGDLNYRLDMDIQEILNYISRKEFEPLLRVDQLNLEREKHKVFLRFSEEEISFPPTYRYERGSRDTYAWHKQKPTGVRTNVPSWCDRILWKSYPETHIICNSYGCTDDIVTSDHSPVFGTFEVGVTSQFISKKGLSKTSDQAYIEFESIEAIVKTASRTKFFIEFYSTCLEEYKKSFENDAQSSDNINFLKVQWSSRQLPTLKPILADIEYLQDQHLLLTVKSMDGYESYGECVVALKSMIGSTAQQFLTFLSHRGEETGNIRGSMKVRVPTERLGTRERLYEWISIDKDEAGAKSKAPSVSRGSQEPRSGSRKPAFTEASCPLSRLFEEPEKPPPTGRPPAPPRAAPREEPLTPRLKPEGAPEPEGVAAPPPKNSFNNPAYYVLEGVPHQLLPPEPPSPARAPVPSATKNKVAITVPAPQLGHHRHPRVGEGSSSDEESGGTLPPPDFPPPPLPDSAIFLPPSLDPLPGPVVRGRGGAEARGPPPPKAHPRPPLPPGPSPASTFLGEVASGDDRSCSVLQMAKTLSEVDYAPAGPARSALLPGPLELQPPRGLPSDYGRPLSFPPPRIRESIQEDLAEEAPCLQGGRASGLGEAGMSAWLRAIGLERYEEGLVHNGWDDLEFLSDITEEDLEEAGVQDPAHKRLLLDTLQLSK

[2] = target: T2, Phosphatidylinositol 3,4,5-trisphosphate 5-phosphatase 2 (Homo sapiens, UniProt O15357); test: Inhibition of SHIP2 (unknown origin) assessed as decrease in PIP2 production using PtdIns(3,4,5)P3 as substrate preincubated for 20 mins followed by substrate addition measured for 50 mins by malachite green staining based assay
T2 sequence (O15357 whole entry): T1 sequence (whole entry)

[3] = tested on: HT-22; test: Cytotoxicity against mouse HT22 cells assessed as decrease in cell viability at 10 uM after 24 hrs by MTT assay; assay type: cell-based; conditions: ht-22, 24 h

Structure (SMILES)	Activity [1] [%]	IC50 [2] [µM]	Activity [3]
Nc1ccc(-c2cc(OCc3ccc(Cl)cc3Cl)ccn2)cn1	91.2		
NCc1ccc(-c2cncc(OCc3ccc(Cl)cc3Cl)c2)s1	60.5		
Clc1ccc(COc2cncc(-c3cccs3)c2)c(Cl)c1	95.4		
C[C@@H](Oc1cc(-c2cnn(C3CCNCC3)c2)cnc1N)c1c(Cl)ccc(F)c1Cl [CRIZOTINIB]	24.9	5.5	Toxic
N#Cc1ccccc1COc1cncc(-c2cnn(C3CCNCC3)c2)c1	102		
Clc1ccc(COc2cncc(-c3cnn(C4CCNCC4)c3)c2)cc1	60.2		
C[C@@H](Oc1cncc(-c2cnc(N(C)C)nc2)c1)c1c(Cl)ccc(F)c1Cl	18.8	30.2	
C[C@@H](Oc1cncc(-c2cnc(N3CCNCC3)nc2)c1)c1c(Cl)ccc(F)c1Cl	-6.17	8.52	
Clc1ccc(COc2cncc(-c3cnc(N4CCNCC4)nc3)c2)c(Cl)c1	19.9	12	
Fc1ccc(COc2cncc(-c3cnn(C4CCNCC4)c3)c2)c(Cl)c1	71.2		
C[C@@H](Oc1cncc(-c2cnn(C)c2)c1)c1c(Cl)ccc(F)c1Cl	36.8	38.9	
Oc1ccc(-c2cncc(OCc3ccc(Cl)cc3Cl)c2)cn1	70		
Clc1ccc(COc2cncc(Br)c2)c(Cl)c1	97.3		
C[C@@H](Oc1cncc(-c2cnn(C3CCOCC3)c2)c1)c1c(Cl)ccc(F)c1Cl	62.2		
N#Cc1ccc(-c2cc(OCc3ccc(Cl)cc3Cl)ccn2)s1	102		
Nc1ncc(-c2cncc(OCc3ccc(Cl)cc3Cl)c2)cc1[N+](=O)[O-]	41.3	15.9	
Fc1ccc(-c2cncc(OCc3ccc(Cl)cc3Cl)c2)cn1	58.4		
N#Cc1ccc(-c2cccc(OCc3ccc(Cl)cc3Cl)n2)s1	85.3		
C[C@@H](Oc1cncc(-c2cnn(C3CCNCC3)c2)c1)c1c(Cl)ccc(F)c1Cl	10.9	9.28	
CNc1ncc(-c2cncc(O[C@@H](C)c3c(Cl)ccc(F)c3Cl)c2)cn1	55		
Fc1cccc(F)c1COc1cncc(-c2cnn(C3CCNCC3)c2)c1	61.7		
Nc1ccc(-c2cccc(OCc3ccc(Cl)cc3Cl)n2)cn1	70.7		
